In assay [1] the test system is A549 cells. Kind of assay: A549 cell proliferation in low-serine medium (CellTiter-Glo 2.0 viable cell number). The assay is classed as cell-based. As to conditions: Homo sapiens, 72 h, 3 days, Assay Medium with 20 μM L-serine. As to the method: The effect of compounds of Formula (Ia) on A549 cell proliferation in low-serine medium was assessed using a luminescence assay of viable cell number (CellTiter-Glo® 2.0, Promega) duplexed with a fluorescent cytotoxicity assessment (CelITox™ Green, Promega). Cell culture reagents were from ThermoFisher unless specified otherwise. Assay reagents were from Sigma-Aldrich unless specified otherwise. Test Compounds were prepared as 10 mM DMSO stocks and dilution series prepared in DMSO for direct dilution into culture medium.
Cells were passaged every 3-4 days at 80-90% confluence. The cell monolayer was washed twice with room-temperature Ca^2+/Mg-free PBS and 4 ml room-temperature trypsin-EDTA added to the flask. After 5 minutes' incubation (37° C., 5% CO2) to detach cells, trypsin was quenched with 13 ml warmed complete growth medium and the cells harvested and diluted to 2.4×10^4 cells/ml for dispensing into 384-well clear-bottom black-walled plates (600 cells/well).
Following overnight incubation, growth medium was aspirated from each well and the cells washed twice with Assay Medium comprising Basal Medium Eagle supplemented with 3% heat-inactivated dialysed FBS plus 2 mM L-glutamine plus 20 μM L-serine (Sigma-Aldrich). After aspiration of the final wash medium, Assay Medium containing Test Compound was added to each well. DMSO vehicle controls were included on each plate.
Cells were incubated for 3 days in a humidified incubator (37° C., 5% CO2) at which point CelITox™ Green and CellTiter-Glo® reagents were prepared according to the manufacturer's instructions. Triton-X was added to HIGH wells for cytotoxicity determination and the plate incubated for 30 minutes (20° C., ambient humidity and pCO2). CelITox™ Green reagent was added to each well and the plate covered, placed on an orbital shaker @450 rpm for 2 minutes, and incubated in the dark for 15 minutes (20° C., ambient humidity and pCO2). Endpoint fluorescence was measured using a plate reader (PHERAstar® FSX, BMG Labtech).
Following cytotoxicity determination, CellTiter-Glo® reagent was added to each well and the plate placed on an orbital shaker @450 rpm for 2 minutes to lyse cells. Plates were incubated in the dark for 15-30 minutes (20° C., ambient humidity and pCO2) prior to endpoint luminescence measurement (PHERAstar® FSX, BMG Labtech).
Proliferation was calculated by normalizing luminescence signals to LOW controls obtained from a parallel plate processed at the time of Test Compound challenge and HIGH (DMSO vehicle) wells from the compound plate. IC50 values were determined from a 4-parameter logistic fit of compound concentration-response curves.
Background: In ATP-based viability assays light output follows the ATP content of the culture.

The target in assay [2] is T1, recombinant human PKM2 (Homo sapiens, UniProt P14618).
T1 construct: His (N); purchased R&D Systems
Kind of assay: Human PKM2 activation assay (Kinase-Glo Plus luminescent detection of generated ATP). Format: biochemical. As to conditions: for Emax: percentage activation normalised to DMSO vehicle (LOW) and 5 μM TEPP-46 (HIGH), read-out: hPKM2 Emax; for EC50: recombinant human PKM2 activation, 4-parameter logistic fit, read-out: hPKM2 EC50. The essentials: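 N-His-tagged recombinant hPKM2 ([…]) with PEP and ADP was incubated with compound for 60 min at 26 °C, shaking, in 50 mM imidazole, 50 mM KCl, 7 mM MgCl2, 0.01% Tween20, 0.05% BSA, pH 7.2. ATP produced was read by Kinase-Glo Plus luminescence after 15 min.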
A general note: In Kinase-Glo more light means more ATP remaining.

T1 sequence (P14618 2-531 limits assumed): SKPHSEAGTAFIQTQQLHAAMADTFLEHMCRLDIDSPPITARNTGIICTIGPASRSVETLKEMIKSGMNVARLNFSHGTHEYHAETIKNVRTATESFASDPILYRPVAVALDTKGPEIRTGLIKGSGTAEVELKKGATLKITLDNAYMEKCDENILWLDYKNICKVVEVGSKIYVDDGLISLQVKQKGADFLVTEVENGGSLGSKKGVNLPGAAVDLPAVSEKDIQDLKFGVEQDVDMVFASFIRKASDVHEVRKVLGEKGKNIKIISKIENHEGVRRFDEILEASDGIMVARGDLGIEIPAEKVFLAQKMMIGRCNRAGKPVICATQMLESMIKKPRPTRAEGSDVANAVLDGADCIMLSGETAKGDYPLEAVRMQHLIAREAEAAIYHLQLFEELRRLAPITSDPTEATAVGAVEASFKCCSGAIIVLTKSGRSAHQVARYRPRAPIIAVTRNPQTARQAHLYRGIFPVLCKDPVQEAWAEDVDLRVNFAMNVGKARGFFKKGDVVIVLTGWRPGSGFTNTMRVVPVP

With `COc1ccc(S(=O)(=O)c2ccc3c(=O)n(Cc4ccc5c(c4)CCO5)ncc3c2)cc1` [Example 47, 2-((2,3-dihydrobenzofuran-5-yl)methyl)-6-((4-methoxyphenyl)sulfonyl)phthalazin-1(2H)-one], in assay [1], the IC50 (commonly the concentration at which inhibition is half-maximal) came to 0.5 nM. Moreover, in assay [2], the maximal response (Emax) – broadly, the maximal effect, on the per cent scale that the assay sets – amounted to 87.9% and the EC50 (as a rule, the concentration that produces a half-maximal response) is 25.5 nM.
For `COc1ccc(S(=O)(=O)c2ccc3c(=O)n(Cc4n[nH]c5ccccc45)ncc3c2)cc1` [Example 48, 2-((1H-indazol-3-yl)methyl)-6-((4-methoxyphenyl)sulfonyl)phthalazin-1(2H)-one], the IC50 in assay [1] turned out to be 1.6 nM. Also, in assay [2], the Emax came to 85.8% and the EC50 was determined as 55.2 nM.
The matching figures for `COc1ccc(S(=O)(=O)c2ccc3c(=O)n(Cc4ccccc4)ncc3c2)cc1` [Example 50, 2-benzyl-6-((4-methoxyphenyl)sulfonyl)phthalazin-1(2H)-one]: 3.1 nM, 97.5% and 70.6 nM.
In assay [1], `COc1ccc(S(=O)(=O)c2ccc3c(=O)n(Cc4ccc(OC)nc4)ncc3c2)cc1` [Example 51, 6-((4-methoxyphenyl)sulfonyl)-2-((6-methoxypyridin-3-yl)methyl)phthalazin-1(2H)-one] registered an IC50 of 3.5 nM. Besides, in assay [2], the Emax stood at 104% and the EC50 came out at 24.1 nM.
The matching figures for `COc1ccc(S(=O)(=O)c2ccc3c(=O)n(Cc4cccc(OC)c4F)ncc3c2)cc1` [Example 52, 2-(2-fluoro-3-methoxybenzyl)-6-((4-methoxyphenyl)sulfonyl)phthalazin-1(2H)-one]: 1.9 nM, 101% and 59.7 nM.
As for `COc1ccc(S(=O)(=O)c2ccc3c(=O)n(Cc4c(F)cc(OC)cc4F)ncc3c2)cc1` [Example 53, 2-(2,6-difluoro-4-methoxybenzyl)-6-((4-methoxyphenyl)sulfonyl)phthalazin-1(2H)-one], in assay [1], it took 5.7 nM to reach half-maximal inhibition (IC50). In assay [2], the Emax came out at 89.2% and the EC50 turned out to be 59.1 nM.
On to `O=c1c2ccc(S(=O)(=O)c3ccccc3)cc2cnn1Cc1ccc2c(c1)OCO2` [Example 57, 2-(benzo[d][1,3]dioxol-5-ylmethyl)-6-(phenylsulfonyl)phthalazin-1(2H)-one], for which inhibition in assay [1] was half-maximal at 2.3 nM (IC50). Also, in assay [2], the Emax was 109% and the EC50 amounted to 55 nM.
The matching figures for `O=c1c2ccc(S(=O)(=O)c3ccccc3)cc2cnn1Cc1ccc2cn[nH]c2c1` [Example 58, 2-((1H-indazol-6-yl)methyl)-6-(phenylsulfonyl)phthalazin-1(2H)-one]: 41.8 nM, 88.6% and 477 nM.
In the case of `COc1ccc(Cn2ncc3cc(S(=O)(=O)c4ccccc4)ccc3c2=O)nc1` [Example 59, 2-((5-methoxypyridin-2-yl)methyl)-6-(phenylsulfonyl)phthalazin-1(2H)-one], the IC50 in assay [1] stood at 3.2 nM. Moreover, in assay [2], the Emax was 107% and the EC50 is 68.9 nM.
As to `NC(=O)Cc1ccccc1Cn1ncc2cc(S(=O)(=O)c3ccccc3)ccc2c1=O` [Example 61, 2-(2-((1-oxo-6-(phenylsulfonyl)phthalazin-2(1H)-yl)methyl)phenyl)acetamide], the IC50 in assay [1] stood at 15.8 nM. For the same compound, in assay [2], the Emax is 67.2% and the EC50 was 564 nM.
Take `O=c1c2ccc(S(=O)(=O)c3ccccc3)cc2cnn1Cc1ccc(OC(F)F)nc1` [Example 62, 2-((6-(difluoromethoxy)pyridin-3-yl)methyl)-6-(phenylsulfonyl)phthalazin-1(2H)-one]: the IC50 in assay [1] stood at 2.5 nM. For the same compound, in assay [2], the Emax was 89.5% and the EC50 came out at 38.7 nM.
With `O=c1c2ccc(S(=O)(=O)c3ccccc3)cc2cnn1Cc1ccccc1CCO` [Example 63, 2-(2-(2-hydroxyethyl)benzyl)-6-(phenylsulfonyl)phthalazin-1(2H)-one], it took 4.3 nM to reach half-maximal inhibition in assay [1] (IC50). In assay [2], the Emax is 101% and the EC50 was 167 nM.
Turning to `CC1Cc2cc(Cn3ncc4cc(S(=O)(=O)c5ccccc5)ccc4c3=O)ccc2O1` (stereo not drawn) [Example 64, 2-((2-methyl-2,3-dihydrobenzofuran-5-yl)methyl)-6-(phenylsulfonyl)phthalazin-1(2H)-one], 2.1 nM corresponded to half-maximal inhibition in assay [1] (IC50). In assay [2], the Emax is 96.4% and the EC50 is 45 nM.
`O=c1c2ccc(S(=O)(=O)c3ccccc3)cc2cnn1Cc1cccnc1` [Example 65, 6-(phenylsulfonyl)-2-(pyridin-3-ylmethyl)phthalazin-1(2H)-one] gave an IC50 in assay [1] of 17.4 nM. In addition, in assay [2], the Emax came to 98.6% and the EC50 was determined as 360 nM.
In assay [1], `NC(=O)c1ccccc1Cn1ncc2cc(S(=O)(=O)c3ccccc3)ccc2c1=O` [Example 66, 2-((1-oxo-6-(phenylsulfonyl)phthalazin-2(1H)-yl)methyl)benzamide] had an IC50 of 4.3 nM. In assay [2], the Emax came out at 88.5% and the EC50 stood at 115 nM.
Taken in the same sequence, the figures for `COCC(c1ccccc1)n1ncc2cc(S(=O)(=O)c3ccccc3)ccc2c1=O` (stereo not drawn) [Example 67, 2-(2-methoxy-1-phenylethyl)-6-(phenylsulfonyl)phthalazin-1(2H)-one] were 3.3 nM, 91.4% and 185 nM.
Take `O=c1c2ccc(S(=O)(=O)c3ccccc3)cc2cnn1Cc1ccccc1` [Example 71, 2-benzyl-6-(phenylsulfonyl)phthalazin-1(2H)-one]: in assay [1], inhibition was half-maximal at 14.1 nM (IC50). Further, in assay [2], the Emax came out at 102% and the EC50 was 115 nM.
Regarding `COc1ccc(S(=O)(=O)c2ccc3c(=O)n(Cc4ccn(C)n4)ncc3c2)cc1` [Example 72, 6-((4-methoxyphenyl)sulfonyl)-2-((1-methyl-1H-pyrazol-3-yl)methyl)phthalazin-1(2H)-one], the midpoint of inhibition in assay [1], the IC50, lay at 3.2 nM. Also, in assay [2], the Emax came to 103% and the EC50 amounted to 35.9 nM.
`COc1ccc(C(C)n2ncc3cc(S(=O)(=O)c4ccccc4)ccc3c2=O)cn1` (stereo not drawn) [Example 74, 2-(1-(6-methoxypyridin-3-yl)ethyl)-6-(phenylsulfonyl)phthalazin-1(2H)-one]: 38.7 nM corresponded to half-maximal inhibition in assay [1] (IC50). Also, in assay [2], the Emax came out at 91.2% and the EC50 was 218 nM.
In assay [1], `Cn1cc(Cl)c(Cn2ncc3cc(S(=O)(=O)c4ccccc4)ccc3c2=O)n1` [Example 76, 2-((4-chloro-1-methyl-1H-pyrazol-3-yl)methyl)-6-(phenylsulfonyl)phthalazin-1(2H)-one] returned an IC50 of 4.1 nM. In assay [2], the Emax stood at 101% and the EC50 was 105 nM.
In turn, `Cc1nc(Cn2ncc3cc(S(=O)(=O)c4ccccc4)ccc3c2=O)cs1` [Example 77, 2-((2-methylthiazol-4-yl)methyl)-6-(phenylsulfonyl)phthalazin-1(2H)-one] displayed an IC50 in assay [1] of 4 nM. In addition, in assay [2], the Emax came to 106% and the half-maximal effective concentration (EC50) was 63 nM.
With `O=c1c2ccc(S(=O)(=O)c3ccccc3)cc2cnn1C(F)(F)c1cccnc1` [Example 78, 2-(difluoro(pyridin-3-yl)methyl)-6-(phenylsulfonyl)phthalazin-1(2H)-one], half-maximal inhibition in assay [1] (IC50) was put at 89.1 nM. In addition, in assay [2], the Emax came to 99% and the EC50 came to 802 nM.
In the case of `COc1ccccc1Cn1ncc2cc(S(=O)(=O)c3ccccc3)ccc2c1=O` [Example 79, 2-(2-methoxybenzyl)-6-(phenylsulfonyl)phthalazin-1(2H)-one], the IC50 in assay [1] was determined as 19.4 nM. In addition, in assay [2], the Emax was found to be 90.2% and the EC50 was 203 nM.
The matching figures for `COc1cccc(Cn2ncc3cc(S(=O)(=O)c4ccccc4)ccc3c2=O)c1` [Example 81, 2-(3-methoxybenzyl)-6-(phenylsulfonyl)phthalazin-1(2H)-one]: 6.7 nM, 98.9% and 49.8 nM.
In the case of `COCC(c1ccccc1)n1ncc2cc(S(=O)(=O)c3ccc(OC)cc3)ccc2c1=O` (stereo not drawn) [Example 82, 2-(2-methoxy-1-phenylethyl)-6-((4-methoxyphenyl)sulfonyl)phthalazin-1(2H)-one], the IC50 in assay [1] came out at 3.5 nM. In assay [2], the Emax came out at 87.4% and the EC50 was determined as 80.9 nM.

For the origin of these results see patent publication US20260152487A1 (Sitryx Therapeutics Limited, priority 2021, published 2026).
